The numbers were not newly measured in patent US20230049822A1, “COMPOSITIONS COMPRISING NICLOSAMIDE FOR USE IN TREATING CONDITIONS ASSOCIATED WITH AN ABNORMAL INFLAMMATORY RESPONSE” (First Wave Bio, Inc., priority 2020, published 2023), which cites them from elsewhere.

Where a name gives a salt, the structure may show the parent alone.

Data set [1] concerns pathogenic T cells isolated from IBD patients. As to conditions: see WO 2017/040864.
Data set [2] deals with murine models of IBD. Particulars: see WO 2017/040864.

As to `O=C(Nc1ccc([N+](=O)[O-])cc1Cl)c1cc(Cl)ccc1O` [Niclosamide, 5-chloro-N-(2-chloro-4-nitrophenyl)-2-hydroxybenzamide], the solubility in acetone entry was “soluble”; the “solubility in ether, ethanol and chloroform” value is listed as “sparingly soluble”. Further, the water solubility (at 20° C.) was 5 to 8 µg/mL. In addition, the “killing of pathogenic T cells” value in data set [1] is given as “kills pathogenic T cells”. Also, the “efficacy in murine models of IBD” value in data set [2] is “effective”.

Turning to `O=C(Nc1ccc([N+](=O)[O-])cc1Cl)c1cc(Cl)ccc1O` [ethanolamine salt, 5-chloro-N-(2-chloro-4-nitrophenyl)-2-hydroxybenzamide with 2-aminoethanol (1:1)], the “dissolves in distilled water” value (distilled water, 20° C.) is 180 to 280 mg/L.
